Laboratory results: patent US9464291B2, “Methods and compositions for the treatment of cancer” (University of South Alabama, priority 2012, dated 2016)

System: OPN
Assay: Secreted OPN protein, immunoblot of conditioned medium, MDA-MB-435
Type: cell-based, human
Conditions: 10 μM and 20 μM cyclopamine
Method: Stable vector only and non-targeting (scrambled control) transfectants were also generated. Stable transfectants were selected on medium supplemented with 500 μg/ml Geneticin (Invitrogen). The four GLI1-knocked down clones chosen were based on the extent of GLI1 knockdown and were termed KO1, KO2, KO3, and KO4. The expression of OPN was restored in the KO1 cells by transfecting with pcDNA3.1-OPN. A corresponding vector-only transfectant was also generated. Transfectants were selected on medium containing Geneticin (500 μg/ml) and hygromycin (750 μg/ml). Serum-free conditioned medium harvested from approximately 3.0×10^6 cells after 24 hr was assayed for OPN by immunoblotting.
Western Blotting Analysis—Whole cell lysates were collected in Nonidet P-40 buffer (150 mM NaCl, 50 mM Tris, 1% Nonidet P-40). Isolation of cytosolic and nuclear fractions was done as previously reported (15). Total protein (30 μg) was resolved by SDS-PAGE gel and transferred to polyvinylidene difluoride membranes. […] Secreted OPN was assessed by loading an equal quantity of protein from the serum-free conditioned medium. […]

CC1=C2C[C@H]3[C@@H](CC=C4C[C@@H](O)CC[C@@]43C)[C@@H]2CC[C@]12O[C@@H]1C[C@H](C)CN[C@H]1[C@H]2C [cyclopamine]
OPN protein in the secretome: decreased levels of OPN protein
